# Results filed as inconclusive are left out. Active and inactive are the calls of the source. How the calls were made is not given here.
# Target: CAAX prenyl protease 2 (Saccharomyces cerevisiae (strain ATCC 204508 / S288c)) (UniProt Q03530)
# Assay: Rce1p protease inhibitors, dose response, biochemical, plate reader, cherry-pick (AID 488788)
# Settings: Rce1p enzyme activity, at 10 µM (top of the series)
# Sequence of CAAX prenyl protease 2 (Saccharomyces cerevisiae (strain ATCC 204508 / S288c)) (Q03530 whole entry, looked up): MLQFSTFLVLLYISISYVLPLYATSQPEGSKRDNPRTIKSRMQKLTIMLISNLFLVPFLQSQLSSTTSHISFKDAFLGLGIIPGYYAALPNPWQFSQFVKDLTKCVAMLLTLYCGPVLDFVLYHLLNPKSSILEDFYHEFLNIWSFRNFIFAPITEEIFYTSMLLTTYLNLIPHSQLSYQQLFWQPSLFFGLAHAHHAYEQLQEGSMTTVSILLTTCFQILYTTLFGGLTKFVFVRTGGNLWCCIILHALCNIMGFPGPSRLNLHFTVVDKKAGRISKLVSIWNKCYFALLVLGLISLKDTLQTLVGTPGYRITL
row,Structure (SMILES),"activity change, negative = inhibition"
1,COc1ccc(-c2cn3ccccc3n2)cc1[N+](=O)[O-],inactive
2,CC(Cc1cccs1)NC(=O)Nc1ccc([N+](=O)[O-])cc1 (stereo unspecified),inactive
3,COc1ccccc1-c1cc(C(=O)O)c2c(=O)n(C)c(=O)n(Cc3ccccc3)c2n1,inactive
4,CCOC(=O)C[C@H]1c2ccccc2S(=O)(=O)N1Cc1cc(OC)c(OC)c(OC)c1,inactive
5,O=C(NCCc1c[nH]c2ccccc12)OCCSS(=O)(=O)O,inactive
6,O=C(COc1ncnc2cc([N+](=O)[O-])ccc12)NC(=O)NC1CCCCC1,inactive
7,Cc1ccc(C(=O)c2c3ccccc3[n+]([O-])n2CCO)cc1,inactive
8,CCOc1ccc(N(CC(=O)NC2CC3CCC2C3)S(=O)(=O)c2ccccc2)cc1 (stereo unspecified),inactive
9,CSc1ccc(C(=O)C2CCCN(C(=O)c3cccnc3SC)C2)cc1 (stereo unspecified),inactive
10,CCO[C@@H]1OC(C(=O)N2CCN(Cc3ccccc3)CC2)=C[C@H](c2ccccc2)[C@H]1CCCO,inactive
11,Cc1nc(N2CCOCC2)c2c(C)c(C(=O)Nc3ccccc3C(F)(F)F)sc2n1,inactive
12,C=C(C)C1(O)OC(=O)C=C1OC (stereo unspecified),inactive
13,COc1ccccc1NC(=O)CN(c1ccc(C23CC4CC(CC(C4)C2)C3)cc1)S(C)(=O)=O,inactive
14,COc1ccc(OCC(=O)NS(=O)(=O)c2ccc(Cl)cc2)cc1,inactive
15,Cc1cc(C)n2nc(CC(=O)NNC(=O)c3ccc(N(C)C)cc3)nc2n1,inactive
16,CCn1cc(C(=O)N[C@H](C)c2ccccc2)c(=O)c2cc(F)c(N3CCN(C)CC3)cc21,inactive
17,Oc1ccc(-c2cn3cc(C(F)(F)F)ccc3n2)cc1,inactive
18,COC(=O)c1ccc(-c2ccc(CNCC(O)c3ccccc3)o2)cc1 (stereo unspecified),inactive

row,Structure (SMILES),"activity change, negative = inhibition"
1,O=C(O)c1ccc(Nc2nc3ccc(Cl)cc3[nH]2)cc1,inactive
2,COCCN1C(=O)/C(=C/c2ccc(Oc3ccc([N+](=O)[O-])cn3)c(OC)c2)SC1=Nc1ccccc1,inactive
3,CCOc1c2ccc(C(=O)NCc3ccco3)cc2nn1CCOC,inactive
4,COCCNc1nc(N)c([N+](=O)[O-])c(N2CCCCCC2)n1,inactive
5,CCOC(=O)c1c(-c2ccc(OC)cc2)oc2ccc(OC(=O)N(C)C)cc12,inactive
6,Cc1ccc(C(=O)N2N=C(c3ccccc3O)CC2c2ccccc2)cc1 (stereo unspecified),inactive
7,COc1nc(-c2ccccc2)ccc1-c1noc(-c2ccccc2F)n1,inactive
8,COC(C/C=C/[C@@H](O)[C@H](C)OCc1ccccc1)OC,inactive
9,CCOc1ccc(-n2ccnc(SCC(=O)NC3CCCC3)c2=O)cc1,inactive
10,CCOc1ccc(NC(=O)CCSc2ccc(C)cc2)cc1,inactive
11,CCCCNC(=O)c1cc2c(=O)n3cccc(C)c3nc2n(Cc2ccccc2)c1=N,inactive
12,CC(Oc1ccc2c3c(c(=O)oc2c1)CCCC3)C(=O)NC1CC(C)(C)NC(C)(C)C1 (stereo unspecified),inactive
13,CCN1CCN(CC(O)COc2ccc3c(C)cc(=O)oc3c2)CC1 (stereo unspecified),inactive
14,C=CC[N+]1(C)CC[C@]23c4c5ccc(O)c4O[C@H]2C(=O)CC[C@@]3(O)[C@H]1C5 (stereo partly specified),inactive
15,Nc1ccccc1Oc1ccc2ccccc2c1,inactive
16,Cc1cc(C)n(-c2nc3ccccc3c(=O)n2OCC(=O)N(C)C)n1,inactive
17,Cc1ccc(C2(COC(=O)C(C)C)CO2)c(OC(=O)C(C)C)c1 (stereo unspecified),inactive
18,CC(C)C(NC(=O)c1ccco1)C(=O)NCC(c1ccco1)N1CCCCC1 (stereo unspecified),inactive

# — PubChem BioAssay AID488788 (Broad Institute, 2010)
